# In patent US20260224538A1 (Purdue Research Foundation, priority 2023, published 2026):
# Key:
# α-syn [1] = target: T1, α-syn (Homo sapiens, UniProt P37840); assay: Photo-induced cross-linking of unmodified proteins (PICUP), α-syn oligomerization; assay type: biochemical; settings: for α-syn oligomer formation (PICUP): compound 50 μM, molar ratio 1:5 (protein:compound)
# T1 construct: purchased rPeptide
# Method: (§1) Photo-induced Cross-linking of Unmodified Proteins (PICUP) Assay. To induce oligomerization by cross-linking, α-syn (from Rpeptide, LLC) and tau isoform 2N4R were diluted in 10 mM phosphate buffer (pH 7.4) to reach a final concentration of 10 μM. Different compounds were added to the protein solution at a final concentration of 50 μM, resulting in a molar ratio of 1:5. To confirm the gradual effect of the compounds on the inhibition of α-syn oligomerization, the compounds were tested at final concentrations of 3.125, 6.25, 12.5, 25, and 50 μM. The controls consisted of samples without light exposition, without Ru(bpy) or ammonium persulfate, and without compound (i.e., 0.125% DMSO). The cross-linking reaction was initiated by the addition of 2 μL of Ru(bpy) (300 μM final concentration) and 2 μL ammonium persulfate (6 mM final concentration). Samples were irradiated immediately. Light exposure was of a one-second duration for α-syn and a three-second duration for tau isoform 2N4R, with a 53 W (120 V) incandescent lamp installed in a homemade dark-box. Each tube contained a final volume of 20 μL. After irradiation, 8.3 μL of Laemmli loading buffer containing 15% β-mercaptoethanol were immediately added to the solution, followed by incubation at 95° C. for 10 minutes. The cross-linked samples were separated on a 16% SDS-PAGE gel and visualized by Coomassie blue staining.
# tau isoform 2N4R [2] = target: T2, tau isoform 2N4R (Homo sapiens, UniProt P10636); assay: PICUP, tau isoform 2N4R oligomerization; assay type: biochemical
# T2 construct: made in house; host or cells: E. coli BL21(DE3)
# Method: The bacterial expression plasmid consisting of the vector pRK172 carrying a cDNA encoding the human Tau 2N4R isoform was obtained from Dr. David Eliezer (Weill Cornell Medicine, New York, NJ). For protein expression, E. coli BL21(DE3) cells were transformed with the plasmid and grown in LB media supplemented with ampicillin (100 μg/mL). Protein over-expression was induced by the addition of 1 mM IPTG for 4 hours at 37° C., and cells were pelleted by centrifugation at 6,000 g for 15 minutes at 4° C. The cells were resuspended in lysis buffer (20 mM MES, 400 mM NaCl, 0.2 mM MgCl2, 1 mM EGTA, protease inhibitor cocktail (P8340, Sigma Aldrich), 0.25 mg/mL lysozyme, and 1 μg/mL DNase 1, pH 6.8) and lysed by a French press cell disruptor at 4° C., after which the lysate was boiled for 20 minutes. Denatured proteins were pelleted by centrifugation at 30,000 g for 30 minutes at 4° C., and the supernatant was dialyzed overnight against cation exchange buffer (20 mM MES, 50 mM NaCl, 1 mM MgCl2, 1 mM EGTA, 2 mM DTT, 0.1 mM PMSF, pH 6.8). The dialysate was loaded onto a HiPrep SP HP column, and proteins were eluted with a linear gradient ranging from 50 mM to 1 M NaCl. Fractions containing tau isoform 2N4R were pooled, and the resulting protein solution was dialyzed against PBS (pH 7.4) and stored at −80° C.
# as §1
# α-syn [3] = target: T1, α-syn; assay: Transmission electron microscopy (TEM) of α-syn fibrils; assay type: biochemical; settings: compound 100 μM
# Method: (§2) Transmission electron microscopy (TEM). After performing analysis with ThT fluorescence assay, TEM was utilized to detect fibril formation. A volume of 10 μL was applied to a 400-mesh Formvar-carbon-coated copper grid (Electron Microscopy Sciences, Hatfield, PA). The grids were incubated for 1 minute and washed three times with distilled water. They were carefully air-dried and incubated for 1 minute in a fresh solution of 1% uranyl acetate. Samples were air-dried and observed using a transmission microscope. Visualization of the grids was performed with TEM (JEOL 1400 Flash, Japan). Acquisition of pictures was performed with settings of accelerating voltage of 100 kV and magnification of 25 k and/or 40 k.
# tau isoform 2N4R [4] = target: T2, tau isoform 2N4R; assay: TEM of tau isoform 2N4R fibrils; assay type: biochemical; settings: compound 100 μM, tau 10 μM, molar ratio 1:10
# Method: as §2
# [5] = system: M17D neuroblastoma cells that express inclusion-prone αS-3K::YFP; assay: α-Syn inclusion-forming neuroblastoma cell experiment; assay type: cell-based; settings: t=96 hrs
# Method: α-Syn (or αS) inclusion-forming neuroblastoma cell experiment. Dox-inducible neuroblastoma cells M17D-TR/αS-3K::YFP have been used previously. 96-well plates were used with a cellular density of 30,000 cells per well. Compounds were added […], and αS-3K::YFP transgene expression was induced […]. Induction was done by adding 1 μg per mL (final concentration) dox to culture media. Cells were incubated in the Incucyte Zoom 2000 platform (Essen Biosciences), and images (green, bright field) were taken continuously. Endpoint analysis of inclusion formation or growth was performed 48 hours after induction (96 hours after plating). The Incucyte processing definition ‘Inclusions’ was created as follows: Parameters, Fixed Threshold, Threshold (GCU) 50; Edge Split On, Edge Sensitivity 100; Cleanup, Hole Fill (μm^2): 10, Adjust Size (pixels): 0; Filters, Area (μm^2): max 50, Mean Intensity: min 60, Integrated Intensity: min 2000. Cell confluence was measured by the processing definition ‘Cells’: Parameters, Segmentation Adjustment 0.7; Cleanup, all parameters set to 0; Filters, Area (μm^2): min 345.00. As described previously for the evaluation of protein expression by SDS-PAGE and Western Blotting in the LiCor system, αS-specific monoclonal antibody 4B12 (Thermofisher, Waltham, MA; 1:1000) and a polyclonal antibody to GAPDH (Sigma-Aldrich, St. Louis, MO, G9545; 1:5000) were used.
# T2 sequence (P10636 1-441 isoform P10636-8): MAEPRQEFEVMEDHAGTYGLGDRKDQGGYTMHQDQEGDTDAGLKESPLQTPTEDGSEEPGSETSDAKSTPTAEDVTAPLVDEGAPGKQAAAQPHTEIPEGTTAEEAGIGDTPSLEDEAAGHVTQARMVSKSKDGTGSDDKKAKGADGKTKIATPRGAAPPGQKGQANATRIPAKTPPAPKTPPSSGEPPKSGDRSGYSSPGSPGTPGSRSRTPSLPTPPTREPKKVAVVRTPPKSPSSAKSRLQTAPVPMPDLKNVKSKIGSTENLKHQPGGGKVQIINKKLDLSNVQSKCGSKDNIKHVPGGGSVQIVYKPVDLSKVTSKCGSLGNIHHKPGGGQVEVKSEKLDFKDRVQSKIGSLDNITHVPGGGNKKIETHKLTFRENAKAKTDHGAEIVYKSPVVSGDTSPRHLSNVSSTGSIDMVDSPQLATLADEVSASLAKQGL
structure (smiles),measurement,setting,value
"Nc1nsc2ccc([N+](=O)[O-])cc12 [A, 5-nitro-1,2-benzothiazol-3-amine]","α-syn oligomer formation (PICUP), dose dependence",α-syn [1]; 3.125-50 μM,reduced the oligomer formation in a dose-dependent manner
same,α-syn oligomer formation (PICUP),"α-syn [1]; listed as 5-nitro-1,2-benzothiazol-3-amine",reduced α-syn and tau isoform 2N4R oligomer formation
same,α-syn oligomer formation (PICUP),"α-syn [1]; listed as nitro-1,2-benzothiazol-3-amine",reduced the oligomer formation
same,"tau isoform 2N4R oligomer formation (PICUP), dose dependence",tau isoform 2N4R [2]; 3.125-50 μM,reduced the oligomer formation in a dose-dependent manner
same,tau isoform 2N4R oligomer formation (PICUP),tau isoform 2N4R [2]; compound 50 μM,reduced α-syn and tau isoform 2N4R oligomer formation
same,α-syn fibrils by TEM,α-syn [3],clear effect in reducing α-syn and tau fibrillization
same,tau isoform 2N4R fibrils by TEM,tau isoform 2N4R [4],clear effect in reducing α-syn and tau fibrillization
same,cell confluence,[5]; different concentrations,without any effect on the cell confluence
same,number of αS-3K::YFP inclusions,"[5]; different concentrations, vs 0.1% DMSO",reduced the number of inclusions in a dose-dependent manner
same,concentration from which the number of inclusions was reduced,[5],10 µM
